Where two headings read alike, the source gives them in different places.
Tests used:
FGFR4-WT = FGFR4-WT (Homo sapiens (Human), UniProt P22455); assay: Omnia assay for potency assessment against FGFR4 enzyme; type: biochemical
Procedure: A 10× stock solution of FGFR4-WT (PR4380C), (from Invitrogen, Carlsbad, Calif.) corresponding to method a in Table 7, was prepared as described below. Alternatively, a 10× stock solution of FGFR4-WT (F01-11G), (SignalChem, Richmond, BC) corresponding to method b in Table 7, was prepared as described below. A solution of 1.4×ATP (AS001A) and 5×Tyr-Sox conjugated peptide substrate (KNZ3101) were prepared in IX kinase reaction buffer consisting of 20 mM Tris, pH 7.5, 5 mM MgCl2, 1 mM EGTA, 5 mM β-glycerophosphate, 5% glycerol (10× stock, KB002A) and 0.2 mM DTT (DS001A). […] The serially diluted compounds were prepared on a Tecan EVO100. A second addition of 10 μl of Tyr-Sox FGFR4 substrate was added to each well and the kinase reactions were started with the addition of 35 μL of 1.4×ATP. The reactions were monitored every 71 seconds for 240 minutes at λex360/λem485 in a Synergy plate reader from BioTek (Winooski, Vt.).

MDA-MB-453 cells = assay: Cell proliferation, MDA-MB-453 (CellTiter Glo); type: cell-based; settings: Homo sapiens; MDA-MB-453; 96 hr; read-out: Cell Proliferation GI50 (nM) MDA
Procedure: For both MDA-MB-453 and Huh7 cells the starting density was 5000 cells per well. The cells were allowed to settle down for 4 hr and were then treated with 5, 1.25, 0.31, 0.078, 0.020 or 0.005 μM of test compound for: 96 hr for MDA-MB-453 and 120 hr for Huh7 cells. Cell viability was determined by CellTiter Glo (Promega, Madison, Wis.) and the results were converted to cell numbers using a standard curve. The growth inhibition (GI50) values were determined by Graph Pad Prism.
The results of these experiments show the ability of compounds to inhibit cell growth in FGFR dependant cell lines and are depicted in Table 8, in the columns titled “Cell Proliferation GI50 (nM)”. MDA-MB-453 cell results fall under the heading “MDA” and Huh7 cell results fall under the heading “Huh.”

Huh7 cells = assay: Cell proliferation, Huh7 (CellTiter Glo); type: cell-based; settings: Homo sapiens, Huh-7; Huh7; 120 hr; read-out: Cell Proliferation GI50 (nM) HUH
Procedure: The growth inhibition (GI50) values were determined by Graph Pad Prism.

[1] = target: FGFR4 in MDA-MB-453 cells (Homo sapiens (Human), UniProt P22455, Y367C); assay: Target occupancy assay with biotinylated covalent probe I-127; type: cell-based; settings: MDA-MB-453 lysate; 2 μM biotinylated probe I-127
Chain of FGFR4 in MDA-MB-453 cells (P22455 22-802 Y367C): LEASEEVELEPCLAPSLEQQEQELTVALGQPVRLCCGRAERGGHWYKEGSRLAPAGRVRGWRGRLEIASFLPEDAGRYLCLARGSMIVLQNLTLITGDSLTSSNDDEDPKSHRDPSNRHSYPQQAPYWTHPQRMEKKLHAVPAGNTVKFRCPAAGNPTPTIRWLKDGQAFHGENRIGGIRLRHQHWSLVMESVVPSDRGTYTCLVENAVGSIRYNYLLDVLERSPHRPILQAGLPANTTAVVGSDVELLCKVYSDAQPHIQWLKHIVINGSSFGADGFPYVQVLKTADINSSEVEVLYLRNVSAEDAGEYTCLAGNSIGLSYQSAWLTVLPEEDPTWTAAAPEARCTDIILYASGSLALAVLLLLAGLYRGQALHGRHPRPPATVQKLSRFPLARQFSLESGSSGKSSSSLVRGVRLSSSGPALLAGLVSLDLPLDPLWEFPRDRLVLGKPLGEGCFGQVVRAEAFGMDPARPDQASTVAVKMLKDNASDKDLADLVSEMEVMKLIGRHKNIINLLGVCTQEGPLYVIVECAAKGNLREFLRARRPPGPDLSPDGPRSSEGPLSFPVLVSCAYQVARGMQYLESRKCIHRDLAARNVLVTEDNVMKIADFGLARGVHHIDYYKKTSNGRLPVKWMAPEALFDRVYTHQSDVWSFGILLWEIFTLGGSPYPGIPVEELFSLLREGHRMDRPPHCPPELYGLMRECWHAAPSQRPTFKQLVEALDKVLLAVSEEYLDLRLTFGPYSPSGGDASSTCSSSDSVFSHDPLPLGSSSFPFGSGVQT
Procedure: In order to assess free FGFR4 protein a biotinylated covalent probe was utilized. […] The reaction was incubated for 2 hr at room temperature. The samples and probe mixture were transferred to a FGFR4-coated MSD plate for 2 hr at room temperature. MSD signals were obtained with an anti-streptavidin Sulfo-tag (Meso Scale) antibody for 1 hr at room temperature.
If a compound completely (100%) covalently modies FGFR4 no free FGFR4 should be available for covalent modification by the biotinylated probe and subsequent binding to streptavidin and detection.

pFGFR4 in Huh7 cells = pFGFR4 in Huh7 cells (Homo sapiens (Human), UniProt P22455); assay: FGFR4 signaling (phospho-FGFR4) in Huh7 cells, MSD; type: cell-based; settings: Meso Scale assay (MSD), 1 hr treatment, read-out: Signaling EC50 (nM) pFGFR4 (Huh)
Chain of pFGFR4 in Huh7 cells (P22455 22-802): as the sequence (P22455 22-802 Y367C) above, with C346Y counted along it

[2] = target: pFGFR4 in MDA-MB-453 cells (Homo sapiens (Human), UniProt P22455, Y367C); assay: FGFR4 signaling (phospho-FGFR4) in MDA-MB-453 cells; type: cell-based; settings: Method A immunoblotting (Western blotting), 1 hr treatment
Chain of pFGFR4 in MDA-MB-453 cells (P22455 22-802 Y367C): as the sequence (P22455 22-802 Y367C) above

[3] = method a: Invitrogen FGFR4-WT 10 nM, ATP 300 uM, Y10-Sox 10 uM, read-out: FGFR4 IC50

Chain of FGFR4-WT (P22455 22-802): as the sequence (P22455 22-802 Y367C) above, with C346Y counted along it

Row | SMILES | GI50 (MDA-MB-453 cells) [nM] | EC50 [1] [nM] | EC50 [2] [nM] | IC50 (FGFR4-WT; [3]) [nM] | GI50 (Huh7 cells) [nM] | EC50 (pFGFR4 in Huh7 cells) [nM] | IC50 (FGFR4-WT) [nM]
1 | C=CC(=O)NC1CCCCC1Nc1ncc2c(n1)N(Cc1cccnc1)C(=O)N(c1c(Cl)c(OC)cc(OC)c1Cl)C2 (racemic) [I-35] | 101 to 500 | 101 to 500 | – | < 100 | 501 to 999 | – | –
2 | C=CC(=O)NC1CCCCC1Nc1ncc2c(n1)N(CC#N)C(=O)N(c1c(Cl)c(OC)cc(OC)c1Cl)C2 (racemic) [I-47] | – | – | – | < 100 | > 1000 | 501 to 999 | –
3 | C=CC(=O)NC1CCCCC1Nc1ncc2c(n1)N(CCOC)C(=O)N(c1c(Cl)c(OC)cc(OC)c1Cl)C2 (racemic) [I-61] | 101 to 500 | 101 to 500 | – | < 100 | 501 to 999 | 101 to 500 | –
4 | C=CC(=O)NC1CCCCC1Nc1ncc2c(n1)N(Cc1ccccc1)C(=O)N(c1c(Cl)c(OC)cc(OC)c1Cl)C2 (racemic) [I-63] | 101 to 500 | 101 to 500 | – | – | 101 to 500 | – | < 100
5 | C=CC(=O)NC1CCCCC1Nc1ncc2c(n1)N(C1CC1)C(=O)N(c1c(Cl)c(OC)cc(OC)c1Cl)C2 (racemic) [I-68] | > 1000 | – | – | 101 to 500 | > 1000 | 501 to 999 | –
6 | C=CC(=O)NC1CCCCC1Nc1ncc2c(n1)N(C)C(=O)N(c1cc(OC)cc(OC)c1Cl)C2 (racemic) [I-76] | – | – | – | 501 to 999 | > 1000 | > 1000 | –
7 | C=CC(=O)NC1CCCCC1Nc1ncc2c(n1)N(CC(F)F)C(=O)N(c1c(Cl)c(OC)cc(OC)c1Cl)C2 (racemic) [I-105] | – | – | – | 101 to 500 | 501 to 999 | 101 to 500 | –
8 | C=CC(=O)NC1CCCCC1Nc1ncc2c(n1)N(CC(F)F)C(=O)N(c1cc(OC)cc(OC)c1Cl)C2 (racemic) [I-107] | – | – | – | > 1000 | > 1000 | > 1000 | –
9 | C=CC(=O)NC1CCCCC1Nc1ncc2c(n1)N(CCF)C(=O)N(c1cc(OC)cc(OC)c1Cl)C2 (racemic) [I-111] | – | – | – | 501 to 999 | > 1000 | > 1000 | –
10 | C=CC(=O)NC1CC=CCC1Nc1ncc2c(n1)N(C)C(=O)N(c1c(Cl)c(OC)cc(OC)c1Cl)C2 (racemic) [I-113] | – | – | – | < 100 | 501 to 999 | – | –

The next lines start with results.

Row | GI50 (MDA-MB-453 cells) [nM] | EC50 [1] [nM] | EC50 [2] [nM] | SMILES | IC50 (FGFR4-WT; [3]) [nM] | GI50 (Huh7 cells) [nM] | EC50 (pFGFR4 in Huh7 cells) [nM] | IC50 (FGFR4-WT) [nM]
11 | < 100 | – | < 100 | C=CC(=O)Nc1ccccc1Nc1ncc2c(n1)N(C)C(=O)N(c1c(Cl)c(OC)cc(OC)c1Cl)C2 [I-2] | – | 101 to 500 | – | –
12 | 501 to 999 | 101 to 500 | – | C=CC(=O)Nc1ccccc1Nc1ncc2c(n1)N(C)C(=O)N(c1cc(OC)cc(OC)c1)C2 [I-5] | – | > 1000 | – | –
13 | < 100 | < 100 | – | C=CC(=O)Nc1cc(N2CCN(CCOC)CC2)ccc1Nc1ncc2c(n1)N(Cc1cccc(NC(=O)CC)c1)C(=O)N(c1cc(OC)cc(OC)c1)C2 [I-9] | – | 501 to 999 | – | –
14 | 101 to 500 | 101 to 500 | – | C=CC(=O)Nc1ccccc1Nc1ncc2c(n1)N(Cc1cccc(F)c1)C(=O)N(c1c(Cl)c(OC)cc(OC)c1Cl)C2 [I-12] | – | – | – | –
15 | 101 to 500 | 101 to 500 | – | C=CC(=O)Nc1cc(N(C)CCOC)ccc1Nc1ncc2c(n1)N(Cc1ccccc1)C(=O)N(c1cc(OC)cc(OC)c1)C2 [I-13] | – | > 1000 | – | –
16 | < 100 | 101 to 500 | – | C=CC(=O)Nc1cc(N2CCN(CC)CC2)ccc1Nc1ncc2c(n1)N(C)C(=O)N(c1cc(OC)cc(OC)c1)C2 [I-15] | – | – | – | –
17 | 101 to 500 | 101 to 500 | – | C=CC(=O)Nc1cc(N2CCOCC2)ccc1Nc1ncc2c(n1)N(C)C(=O)N(c1cc(OC)cc(OC)c1)C2 [I-17] | – | – | – | –
18 | < 100 | 101 to 500 | – | C=CC(=O)Nc1cc(N2CCN(CCOC)CC2)ccc1Nc1ncc2c(n1)N(C)C(=O)N(c1cc(OC)cc(OC)c1)C2 [I-20] | – | – | – | –
19 | 101 to 500 | 101 to 500 | – | C=CC(=O)Nc1cc(N(C)CCOC)ccc1Nc1ncc2c(n1)N(C)C(=O)N(c1cc(OC)cc(OC)c1)C2 [I-21] | – | 501 to 999 | – | –
20 | < 100 | 101 to 500 | – | C=CC(=O)Nc1ccccc1Nc1ncc2c(n1)N(Cc1ccc(F)cc1)C(=O)N(c1c(Cl)c(OC)cc(OC)c1Cl)C2 [I-25] | – | 501 to 999 | – | –

— patent US10189794B2, “Heteroaryl compounds and uses thereof” (Celgene CAR LLC, priority 2013, dated 2019)
